Assay results published in patent US20150353495A1 (PORTOLA PHARMACEUTICALS, INC., priority 2010, published 2015).

Assays:
JAK3 = biological target: T1, JAK3 (Homo sapiens, UniProt P52333); assay: Z'-LYTE kinase assay JAK3; type: biochemical
T1 construct: 5 μl of catalytic domain recombinant Kinase enzyme+Tyr peptide substrate (Invitrogen, CA); purchased Invitrogen
Outline: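 In duplicate wells, each test molecule (1% final DMSO) is incubated with recombinant kinase catalytic domain, Tyr6 peptide substrate and ATP for one hour at room temperature; a site-specific protease is then added for another hour before fluorescence reading.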

[1] = biological target: T2, full length active recombinant SYK enzyme (Homo sapiens, UniProt P43405); assay: Inhibition of Syk tyrosine phosphorylation activity (LANCE TR-FRET); type: biochemical
T2 construct: full length active recombinant SYK enzyme (Millipore, Calif.); purchased Millipore
Text: This example illustrates methods for evaluating the compounds of the invention, along with results obtained for such assays. The in vitro and in vivo human Syk activities of the inventive compounds can be determined by various procedures known in the art, such as a test for their ability to inhibit the activity of human plasma Syk. […] The IC50 value is the concentration (in nM) of the compound required to provide 50% inhibition of human Syk proteolytic activity.
An in vitro assay for detecting and measuring inhibition activity against Syk is as follows:
Inhibition of Syk Tyrosine Phosphorylation Activity
Potency of candidate molecules for inhibiting Syk tyrosine phosphorylation activity is assessed by measuring the ability of a test compound to inhibit Syk-mediated tyrosine phosphorylation of a Syk-specific substrate.
SYK tyrosine phosphorylation activity is measured using the LANCE™ Technology developed by Perkin Elmer Life and Analytical Sciences (Boston, Mass.). LANCE™ refers to homogeneous time resolved fluorometry applications using techniques such as time-resolved fluorescence resonance energy transfer assay (TR-FRET) (see generally for procedures in Perkin Elmer Application Note-How to Optimize a Tyrosine Kinase Assay Using Time Resolved Fluorescence-Based LANCE Detection, wwww.perkinelmer.com/lifesciences). The assay principle involves detection of a phosphorylated substrate using energy transfer from a phosphospecific europium-labeled antibody to streptavidin-allophycocyanin as an acceptor.
To test the ability of candidate molecules to inhibit SYK tyrosine phosphorylation activity, molecules are reconstituted in 30% DMSO and serially diluted 1:3 with the final dilution containing DMSO in the absence of the candidate molecule. The final DMSO concentration in the assay is 3%. Kinase assays are performed as a two part reaction. The first reaction is a kinase reaction and which comprises of a candidate molecule, full length active recombinant SYK enzyme (Millipore, Calif.) and biotin-labeled SYK-specific substrate biotin-[…]-OH. The second reaction involves termination of the kinase reaction and the simultaneous addition of the detection reagents-europium-labeled anti-phosphotyrosine reagent (Eu-W1024-PY100, Perkin Elmer, Boston, Mass.) and Streptavidin-Allophycocyanin detection reagent (SA-APC, Prozyme, CA). The kinase reaction is performed in a black U-bottom 96-well microtitre plate. The final reaction volume is 50 μL and contains a final concentration of 1 nM active SYK enzyme, 550 nM SYK-substrate, and 100 nM ATP diluted in a buffer containing 50 mM Tris pH 7.5, 5 mM MgCl2, and 1 mM DTT. The reaction is allowed to proceed for 1 hour at room temperature. The quench buffer contains 100 mM Tris pH 7.5, 300 mM NaCl2, 20 mM EDTA, 0.02% Brij35, and 0.5% BSA. The detection reagents are added to the reaction mixture at the following dilutions-1:500 for Eu-W1024-PY100 and 1:250 for SA-APC. The kinase reaction is terminated by the addition of 50 μL quench buffer containing the detection reagents. […] Detection of the phosphorlated substrate in the absence and presence of inhibitors is measured in the TR-FRET instrument, Analyst HT (Molecular Probes, Sunnyvale, Calif.) and the condition for measurements are set up using CriterionHost Release 2.0 (Molecular Probes, Sunnyvale, Calif.). […] Inhibition of SYK-tyrosine kinase activity is calculated as the maximum response observed in the presence of inhibitor, compared to that in the absence of inhibitor. […]

T1 sequence (P52333 822-1111 limits assumed): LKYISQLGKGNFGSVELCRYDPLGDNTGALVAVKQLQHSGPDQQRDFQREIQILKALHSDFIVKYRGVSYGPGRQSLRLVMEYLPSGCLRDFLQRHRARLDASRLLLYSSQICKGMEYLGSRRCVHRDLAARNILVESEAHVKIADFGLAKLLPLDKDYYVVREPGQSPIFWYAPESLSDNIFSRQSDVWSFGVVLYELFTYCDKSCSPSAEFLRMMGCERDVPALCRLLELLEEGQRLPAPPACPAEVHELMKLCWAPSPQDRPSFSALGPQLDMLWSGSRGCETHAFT

| Compound | IC50 (JAK3) | IC50 [1] |
| --- | --- | --- |
| CC(=O)N1CCN(c2ccc(Nc3cc(NC4CC4)c(C(N)=O)cn3)cc2)CC1 [Example 2] | 0.01 to 0.1 µM | > 1 µM |
| CC(=O)N1CCN(c2ccc(Nc3cc(NCc4cccc(F)c4)c(C(N)=O)cn3)cc2)CC1 [Example 229] | 0.001 to 0.01 µM | > 1 µM |
